Experimental data reported in patent US10457619B2, “Resorcinol derivatives for cosmetic use thereof” (L'OREAL, priority 2015, dated 2019).

Each compound was assayed on normal human melanocytes (assay: Activity on constitutive melanogenesis: melanin production by normal human melanocytes in vitro). Settings: Melanocyte, 72 hours incubation, optical density, maximum concentration tested 200 μM, read-out: IC50 (μM): concentration at which a 50% decrease in melanin synthesis is achieved.
Type: cell-based
Method: For the evaluations of the effect of preventing or decreasing pigmentation of the skin and/or of lightening of this skin, the examples are performed in the following manner.
The measurement of the depigmenting activity (reduction of melanin production) of compounds of formula (I) was performed by assaying normal human melanocytes in vitro as follows.
First of all, normal human melanocytes were cultured and dispensed into 384 wells. After 24 hours, the culture medium was replaced with a medium containing compounds of formula (I) to be evaluated. The cells were incubated for 72 hours before measurement of the final optical density, which measures the amount of melanin produced by the melanocytes. A dose effect was performed using a wide concentration range of the compounds evaluated. Thus, by making the concentrations and the melanin measurements correspond, it was possible to determine an IC50 in μM: concentration at which a 50% decrease in melanin synthesis is achieved.
`CC(=O)OCCC(C)c1ccc(O)cc1O` (stereo not drawn) [Compound 3, 3-(2,4-dihydroxyphenyl) butyl acetate] was tested, and the IC50 was 4.96 µM.
`CC(=O)OCCC(C)c1ccc(OC(C)=O)cc1OC(C)=O` (stereo not drawn) [Compound 2, 4-[4-(acetyloxy)but-2-yl]benzene-1,3-diyl diacetate] was tested, and the IC50 was 4.08 µM.
With `OCCCc1ccc(O)cc1O` [compound (A), reference compound] the IC50 was 23.4 µM.
Work on `CC(CCO)c1ccc(O)cc1O` (stereo not drawn) [Compound 1, 4-(3-hydroxy-1-methylpropyl) benzene-1,3-diol] yielded an IC50 of 3.61 µM.

These compounds were tested on pigmented reconstructed epidermides (keratinocytes and melanocytes of European origin, Episkin) (assay: Depigmenting activity on pigmented reconstructed epidermis (melanin quantified by image analysis, Fontana-Masson stain)). Settings: compounds at 30 μM in DMSO, added to culture medium.
Type: cell-based, human
Method: The aim of this test is to evaluate the modulation of melanogenesis in pigmented reconstructed epidermides after “systemic” application of the products. • The compounds are tested at 30 μM in DMSO. • The pigmented epidermides are reconstructed using keratinocytes and melanocytes of European origin seeded on the substrate BPER (Episkin). The test products are added to the culture medium immediately on seeding the cells and at all the changes of medium.
The pigmented reconstructed epidermis standard study model was published by:
Regnier M., Duval C., Galey J. B., Philippe M., Lagrange A., Tuloup R., Schmidt R., Cellular and Molecular Biology, 1999, 45, 7, 969-980: “Keratinocyte-melanocyte co-cultures and pigmented reconstructed human epidermis: models to study modulation of melanogenesis”.
The melanin was quantified by image analysis on histological sections after revelation with Fontana-Masson stain. Each stained epidermis is photographed over its entire length using a camera connected to a microscope.
The decrease in the amount of melanin is evaluated relative to the solvent (DMSO)
In the case of `CCCCc1ccc(O)cc1O` [Lucinol, reference compound], the “Depigmenting activity/DMSO (decrease in the amount of melanin relative to the solvent)” value is reported as −41%.
`CC(CCO)c1ccc(O)cc1O` (stereo not drawn) [Compound 1, 4-(3-hydroxy-1-methylpropyl) benzene-1,3-diol] was tested, and the “Depigmenting activity/DMSO (decrease in the amount of melanin relative to the solvent)” value was −59%.
